# Assay results reported in patent publication US20200345733A1, “Microbicidal Pyrimidine or Triazine Containing Compounds” (Janssen Sciences Ireland UC, priority 2002, published 2020).
# Like-named read-outs stand apart in the source and are kept apart here.
# Legend:
# [1] = test system: HIV; experiment: Cervical explant model; format: cell-based
# Experimental: Compound B, at a concentration of 10 nM, was able to block infection of the tissue and at a concentration of 100 nM the compound could prevent transfer of infectious virus from migratory dendritic cells to co-cultured T-cells.
# [2] = molecular target: HIV-1 reverse transcriptase (HIV-1 RT) (Human immunodeficiency virus type 1 group M subtype B, UniProt P04585); experiment: Steady state kinetics of RNA-dependent DNA polymerization by HIV-1 RT; format: biochemical
# Experimental: In a first experiment, the reaction velocity was determined in the presence of different concentrations of compound B and different concentrations of dGTP while the concentration of the p(rC)p(dG) complex was constant.
# In a second experimental the reaction velocity was determined in the presence of different concentrations of compound B and different concentrations of p(rC)p(dG) while the concentration of the substrate was constant.
# [3] = test system: HIV Ba-L; experiment: Prevention of HIV Ba-L infection in MO-DC/CD4(+) T cell co-cultures (ELISA, secondary culture, PCR); format: cell-based; settings: for HIV Antigen (number of positive wells) 2° Cult. / HIV proviral DNA (2° Cult.) / HIV Antigen (number of positive wells) 1° Cult.: cell-associated HIV Ba-L; for HIV Antigen (number of positive wells) 2° Cult.: 2° culture without drug, out of 6; for HIV proviral DNA (2° Cult.): PCR after secondary culture; for HIV Antigen (number of positive wells) 1° Cult.: continuous drug, out of 6 microcultures; for EC50: Human immunodeficiency virus 1, BAL, T-cell, MO-DC/CD4(+) T cells, read-out: EC50 (inhibiting 50% of HIV Ba-L replication)
# Experimental: For experiments with CEM T cells, we used the lymphotropic SI/X4 HIV strain HTLV-IIIB, originally obtained from R. C. Gallo and M. Popovic (NIH, Bethesda, Md.). For experiments with monocyte-derived dendritic cells (MO-DC), the monotropic NSI/R5 HIV strain Ba-L, kindly provided by the NIH AIDS Research and Reference Reagent Program (Rockville, Md) was used. Ba-L stocks were grown and tittered on PHA/IL-2-stimulated peripheral blood mononuclear cells (PBMC) in complete medium, containing RPMI-1640 (Bio-Whittaker, Verviers, Belgium) and 10% bovine calf serum (Hyclone, Utah, US) (Peden K. Virological and Molecular Genetic Techniques for Studies of Established HIV Isolates. 1995, 21-45). The supernatant of these cultures were directly used as cell-free virus to infect MO-DC. To prepare cell-associated HIV Ba-L, non-stimulated PBMC (2×10^6 cells/ml) were incubated overnight with 10^−2 MOI (=multiplicity of infection) of HIV Ba-L in complete medium. Afterwards, cells were extensively washed, frozen in liquid nitrogen and thawed on the day of infection.
# HIV antigen was detected using an in-house developed ELISA assay, of which the characteristics have been described (Beirnaert E, Willems B, Peeters M, Bouckaert A, Heyndrickx L, Zhong P et al. Design and Evaluation of an in-House HIV-1 (Group M and O), SIVmnd and SIVcpz Antigen Capture Assay. J Virol Methods 1998, 73: 65-70). The lower detection limit is about 200 pg/ml and the upper limit is about 25,000 pg/ml, as determined using a standard curve of Ba-L stock dilutions with known p24 content. The 50% Effective Concentration (EC50) was calculated by plotting HIV Ag concentration against drug concentration, followed by regression analysis on the linear part of the curve,
# Cell-free HIV Ba-L was pre-incubated with a serial dilution of drug, ranging from 10,000 to 0.1 nM (final concentration), for 1 hour at 37° C. MO-DC were infected with drug-treated HIV at a multiplicity of infection (MOI) of 10^−3. After 2 hours (at 37° C.), MO-DC were washed (6×) and suspended at 4×10^5 cells/ml. 50 μl of MO-DC were dispensed in a 96-well cup, together with 50 μl of autologous CD4(+) T cells (2×10^6 cells/ml) and 100 μl of complete medium or 100 μl of drug (at the same concentration as for the pre-incubation). Half of the culture medium was refreshed twice weekly with complete medium, with or without drug. After 2 weeks of primary culture, supernatants were analysed by ELISA and cells were used for secondary cultures to check viral rescue. For experiments with cell-associated HIV, a similar set-up was used except that pre-incubated, cell-associated virus was washed before addition of MO-DC/CD4(+) T cells and remained present during the MO-DC/CD4(+) T cell co-culture.
# To evaluate the effect of a 24-hours treatment, MO-DC and autologous CD4(+) T cells were suspended in complete medium at 4×10^4, resp. 2×10^5 cells/ml. Fifty μl of MO-DC and 50 μl of CD4(±) T cells were dispensed in a 96-well cup, together with 50 μl of cell-associated or cell-free virus (10^−3 MOI) and 50 μl of complete medium or 50 μl of a serial dilution of drug. After 24-hours (37° C., 5% CO2), cells were washed (3×) and incubated for 2 weeks. Half of the culture medium was refreshed twice weekly with complete medium (without drug). After 2 weeks of primary culture, supernatants were analysed by ELISA and cells were used for secondary cultures to check viral rescue.
# PBMC were isolated from donor buffy coats and cultured for 2 days in complete medium supplemented with 5 ng/ml IL-2 (Immunosource, Zoersel, Belgium) and 0.5 μg/ml PHA (Murex, Dartford, England). After 2 weeks of primary culture, MO-DC/CD4(+) T cell co-cultures were washed (3×) and secondary cultures were set-up by adding 1×10^5 PHA/IL-2 activated PBMC per cup. Half of the culture medium was replaced every 3-4 days with IL-2 containing medium (without drug) and supernatants as well as cells were harvested after 2 additional weeks. Supernatants were tested for HIV-Ag in ELISA. […]
# [4] = Continuous treatment, Cell-associated HIV
# [5] = Continuous treatment, Cell-free HIV
smiles,measurement,setting,value
"Cc1cc(C)c(Nc2ccnc(Nc3ccc(C#N)cc3)n2)c(C)c1 [compound B, 4-[[4-[(2,4,6-trimethylphenyl)amino]-2-pyrimidinyl]amino]benzonitrile]",Concentration able to block infection of the tissue,[1],10 nM
same,Concentration preventing transfer of infectious virus from migratory dendritic cells to co-cultured T-cells,[1],100 nM
same,Nature of binding to HIV-1 RT,[2]; against dGTP,non-competitive
same,Ki,"[2]; against dGTP, p(rC)p(dG) constant",33 nM
same,Nature of binding to HIV-1 RT,[2]; against p(rC)p(dG),non-competitive
same,Ki,"[2]; against p(rC)p(dG), substrate constant",28 nM
same,Km,"[2]; dGTP varied, p(rC)p(dG) constant (Km of the substrate)",2.51 µM
same,Km,"[2]; p(rC)p(dG) varied, substrate constant (Km of primer/template)",10.3 µM
same,HIV Antigen (number of positive wells) 2° Cult.,[3]; 10 nM in 1° culture,3
same,HIV proviral DNA (2° Cult.),[3]; 10 nM,4.74 Log(number of DNA copies/10^6 cells)
same,HIV Antigen (number of positive wells) 1° Cult.,[3]; 10 nM,0
same,HIV Antigen (number of positive wells) 2° Cult.,[3]; 100 nM in 1° culture,0
same,HIV proviral DNA (2° Cult.),[3]; 100 nM,Neg
same,HIV Antigen (number of positive wells) 1° Cult.,[3]; 100 nM,0
same,HIV Antigen (number of positive wells) 2° Cult.,"[3]; 1,000 nM in 1° culture",0
same,HIV proviral DNA (2° Cult.),"[3]; 1,000 nM",Neg
same,HIV Antigen (number of positive wells) 1° Cult.,"[3]; 1,000 nM",0
same,HIV Antigen (number of positive wells) 2° Cult.,"[3]; 10,000 nM in 1° culture",0
same,HIV proviral DNA (2° Cult.),"[3]; 10,000 nM",Neg
same,HIV Antigen (number of positive wells) 1° Cult.,"[3]; 10,000 nM",0
same,Conc. that prevents replicative HIV infection (ELISA and PCR after 2° culture),"[3]; 24 Hours treatment, Cell-associated HIV","1,000 nM"
same,Conc. that prevents replicative HIV infection (ELISA and PCR after 2° culture),"[3]; 24 Hours treatment, Cell-free HIV",100 nM
same,Conc. that prevents replicative HIV infection (ELISA and PCR after 2° culture),[3]; [4],100 nM
same,Conc. that prevents replicative HIV infection (ELISA and PCR after 2° culture),[3]; [5],10 nM
same,EC50,"[3]; 24 h, 24 hours treatment, Cell-associated HIV",63 nM
same,EC50,"[3]; 24 h, 24 hours treatment, Cell-free HIV",42 nM
same,EC50,[3]; [4],< 1 nM
same,EC50,[3]; [5],< 0.1 nM
same,Concentration that blocked infection in the primary cultures,"[3]; cell-associated virus, continuous treatment, primary culture only",10 nM
